What was measured:
[1] = Stability in mouse serum assessed as half life measured after 1 hr by HPLC analysis; format: ADME, cell-free
[2] = Acute toxicity in male BALB/c mouse assessed infiltration of inflammatory cells in spleen at 20 to 30 mg/kg, ip measured after 7 days by H and E staining based analysis; format: organism-based; conditions: in vivo, 168 h, dose 20-30 mg/kg, time 7 day
[3] = Acute toxicity in male BALB/c mouse assessed appearance of augmented alveolar interstitial space at 20 to 30 mg/kg, ip measured after 7 days by H and E staining based analysis; format: organism-based; conditions: in vivo, 168 h, dose 20-30 mg/kg, time 7 day
[4] = Acute toxicity in male BALB/c mouse assessed infiltration of inflammatory cells in kidney at 20 to 30 mg/kg, ip measured after 7 days by H and E staining based analysis; format: organism-based; conditions: in vivo, 168 h, dose 20-30 mg/kg, time 7 day
[5] = Stability in mouse serum assessed as retention time measured after 1 hr by RP-HPLC analysis; format: ADME, cell-free
[6] = Acute toxicity in male BALB/c mouse assessed infiltration of inflammatory cells at 20 to 30 mg/kg, ip measured after 7 days by H and E staining based analysis; format: organism-based; conditions: in vivo, 168 h, dose 20-30 mg/kg, time 7 day
[7] = Acute toxicity in male BALB/c mouse assessed effect on lung at 20 to 30 mg/kg, ip measured after 7 days by H and E staining based analysis; format: organism-based; conditions: in vivo, 168 h, dose 20-30 mg/kg, time 7 day
[8] = Acute toxicity in male BALB/c mouse assessed lethal dose administered as ip dose measured for 7 days; format: organism-based; conditions: in vivo, time 7 day
[9] = Acute toxicity in male BALB/c mouse assessed appearance of lung congestion at 20 to 30 mg/kg, ip measured after 7 days by H and E staining based analysis; format: organism-based; conditions: in vivo, 168 h, dose 20-30 mg/kg, time 7 day
[10] = Acute toxicity in male BALB/c mouse assessed appearance of aberrant alveolar morphology at 20 to 30 mg/kg, ip measured after 7 days by H and E staining based analysis; format: organism-based; conditions: in vivo, 168 h, dose 20-30 mg/kg, time 7 day
[11] = Acute toxicity in male BALB/c mouse assessed effect on liver at 20 to 30 mg/kg, ip measured after 7 days by H and E staining based analysis; format: organism-based; conditions: in vivo, 168 h, dose 20-30 mg/kg, time 7 day

In the case of `CC(C)CCCCC(=O)N[C@@H](CCN)C(=O)N[C@H](C(=O)N[C@@H](CCN)C(=O)N[C@H]1CCNC(=O)[C@H]([C@@H](C)O)NC(=O)[C@H](CCN)NC(=O)[C@H](CCN)NC(=O)[C@H](CC(C)C)NC(=O)[C@@H](Cc2ccccc2)NC(=O)[C@H](CCN)NC1=O)[C@@H](C)O.CC[C@H](C)CCCCC(=O)N[C@@H](CCN)C(=O)N[C@H](C(=O)N[C@@H](CCN)C(=O)N[C@H]1CCNC(=O)[C@H]([C@@H](C)O)NC(=O)[C@H](CCN)NC(=O)[C@H](CCN)NC(=O)[C@H](CC(C)C)NC(=O)[C@@H](Cc2ccccc2)NC(=O)[C@H](CCN)NC1=O)[C@@H](C)O`, the half-life [1] was 10.5 h, the Activity [2] was “Non-toxic” and the Activity [3] was “Toxic”. For the same compound, the Activity [4] was “Non-toxic”, the Retention_time [5] was 13.545 min and the Activity [6] was “Toxic”. The Activity [7] was “Toxic”, the LD50 at 168 h [8] was 23.6 mg/kg and the Activity [9] was “Toxic”. The Activity [10] was “Toxic” and the Activity [11] was “Toxic”.

Source: ChEMBL document CHEMBL6114980, “Single or double lipid-modified ultra-short antimicrobial peptides for treating infections caused by resistant bacteria” (Eur J Med Chem, 2025)
